Results: US8304426B2, “Polymorphic form of Granisetron base, methods for obtaining it and formulation containing it” (Inke, S.A., priority 2007, dated 2012)

Experiment: Stability of the polymorphic form: XRPD, IR and DSC characterization repeated one year later
Assay type: physicochemical
Settings: solid from Example 11 (crystallised from 2-propanol)
Method: A PHILIPS X′ Pert diffractometer provided with a Cu tube and a secondary monochromator made of graphite (wavelength Kα Cu, 1.5419 Å) was used to record the X-ray powder diffractograms. Reception slot: 0.1 mm; Soller: 0.04 rad; antidiffusion slot and divergence slot: 1°.
2.61 g of Granisetron base is dissolved in 7.0 ml of 2-propanol, and is taken to reflux, when all the product is dissolved, the resultant dissolution is allowed to cool to 15° C. and the resultant solid is filtered and washed with 2-propanol. 2.47 g of Granisetron base is recovered (95%). Said Granisetron base is characterized as Form I with the following data of XRPD, IR and DSC: […]

SMILES: CN1C2CCCC1CC(NC(=O)c1nn(C)c3ccccc13)C2 (stereo not drawn) [Form I of Granisetron base, endo-1-methyl-N-(9-methyl-9-azabicycle[3.3.1]non-3-yl)-1H-indazole-3-carboxamide]
- Stability of polymorphic form (XRPD, IR and DSC characterization repeated, same result obtained): stable
